Assays:
Assay type in all cases: functional, cell-based
BaF3 [1] = assay: Antiproliferative activity against mouse BAF3 cells expressing wild type Bcr-Abl
BaF3 [2] = assay: Antiproliferative activity against mouse BAF3 cells
BaF3 [3] = assay: Antiproliferative activity against mouse BAF3 cells expressing Bcr-Abl T315I mutant

EC50 (BaF3 [1]) | EC50 (BaF3 [2]) | EC50 (BaF3 [3]) | Compound
11 nM | > 10000 nM | 220 nM | CCN1CCN(Cc2ccc(NC(=O)c3cccc(C#Cc4cnc5[nH]ccc5c4)c3)cc2C(F)(F)F)CC1
< 1 nM | 2190 nM | 990 nM | CCN1CCN(Cc2ccc(NC(=O)c3ccc(C)c(C#Cc4cncnc4)c3)cc2C(F)(F)F)CC1
< 1 nM | 860 nM | 165 nM | CCN1CCN(Cc2ccc(NC(=O)c3ccc(C)c(C#Cc4cnc(N)cn4)c3)cc2C(F)(F)F)CC1
240 nM | 6760 nM | 8370 nM | CCN1CCN(Cc2ccc(NC(=O)c3ccc(C)c(C#Cc4coc5ccccc45)c3)cc2C(F)(F)F)CC1
< 1 nM | 2050 nM | 10 nM | CCN1CCN(Cc2ccc(NC(=O)c3ccc(C)c(C#Cc4ccc(NC(C)=O)nc4)c3)cc2C(F)(F)F)CC1
< 1 nM | 60 nM | 14 nM | CCN1CCN(Cc2ccc(NC(=O)c3ccc(C)c(C#Cc4cnc5[nH]cnc5c4)c3)cc2C(F)(F)F)CC1
15 nM | 2830 nM | 300 nM | Cc1cn(-c2cc(NC(=O)c3cccc(C#Cc4cnc5[nH]ccc5c4)c3)cc(C(F)(F)F)c2)cn1
< 1 nM | 1800 nM | 13 nM | CCN1CCN(Cc2ccc(NC(=O)c3ccc(C)c(C#Cc4ccc(NC(=O)C5CC5)nc4)c3)cc2C(F)(F)F)CC1
26 nM | 1000 nM | 560 nM | CCN1CCN(Cc2ccc(NC(=O)c3ccc(C)c(C#Cc4cnc5[nH]c(C)cc5c4)c3)cc2C(F)(F)F)CC1
37 nM | > 10000 nM | 470 nM | Cc1cn(-c2cc(NC(=O)c3ccc(C)c(C#Cc4cnc5[nH]ccc5c4)c3)cc(C(F)(F)F)c2)cn1
6 nM | 2490 nM | 3030 nM | CCN1CCN(Cc2ccc(NC(=O)c3ccc(C)c(C#Cc4cnccn4)c3)cc2C(F)(F)F)CC1
37 nM | 3320 nM | 5520 nM | CCN1CCN(Cc2ccc(NC(=O)c3ccc(C)c(C#Cc4cnc5nccnc5c4)c3)cc2C(F)(F)F)CC1
41 nM | 3980 nM | 2580 nM | CCN1CCN(Cc2ccc(NC(=O)c3ccc(C)c(C#Cc4ccc(C(=O)NC)nc4)c3)cc2C(F)(F)F)CC1
70 nM | 7860 nM | 2630 nM | CCN1CCN(Cc2ccc(C(=O)Nc3ccc(C)c(C#Cc4cnc5[nH]ccc5c4)c3)cc2C(F)(F)F)CC1
